According to patent US8404708B2, “Dual NK1/NK3 receptor antagonists” (Hoffmann-La Roche Inc., priority 2004, dated 2013):
pKi: −log10 of the molar value. Read-outs that look alike come from different tables or passages of the source.

Key:
human NK1 receptor = human NK1 receptor (Homo sapiens, UniProt P25103); assay: NK1 receptor binding, [3H]substance P displacement, CHO cell membranes; conditions: for pKi: first value of the cell pKi NK1/NK3, human NK1 receptor, [3H]substance P; for Ki: first value of the cell NK1/NK3, read-out: pKi NK1 (converted)
human NK1 receptor, sequence (P25103 whole entry): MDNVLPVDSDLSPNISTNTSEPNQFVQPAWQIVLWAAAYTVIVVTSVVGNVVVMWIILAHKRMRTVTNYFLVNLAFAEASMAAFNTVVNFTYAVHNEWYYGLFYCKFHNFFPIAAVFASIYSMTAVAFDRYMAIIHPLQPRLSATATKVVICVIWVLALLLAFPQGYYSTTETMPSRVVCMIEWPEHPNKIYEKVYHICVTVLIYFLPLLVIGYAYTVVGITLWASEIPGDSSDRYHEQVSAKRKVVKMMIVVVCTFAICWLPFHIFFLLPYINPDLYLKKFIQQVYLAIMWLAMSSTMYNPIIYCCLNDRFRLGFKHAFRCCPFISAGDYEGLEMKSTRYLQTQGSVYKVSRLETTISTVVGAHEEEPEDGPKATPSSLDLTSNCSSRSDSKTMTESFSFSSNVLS

[1] = molecular target: T1, Recombinant human NK3 (hNK3) receptor (Homo sapiens, UniProt P29371); assay: NK3 receptor binding, [3H]SR142801 displacement, membrane preparations; conditions: for pKi: second value of the cell pKi NK1/NK3, hNK3 receptor, [3H]SR142801; for Ki: second value of the cell NK1/NK3, read-out: pKi NK3 (converted)
T1 construct: expressed in transfected cells
T1 sequence (P29371 1-465): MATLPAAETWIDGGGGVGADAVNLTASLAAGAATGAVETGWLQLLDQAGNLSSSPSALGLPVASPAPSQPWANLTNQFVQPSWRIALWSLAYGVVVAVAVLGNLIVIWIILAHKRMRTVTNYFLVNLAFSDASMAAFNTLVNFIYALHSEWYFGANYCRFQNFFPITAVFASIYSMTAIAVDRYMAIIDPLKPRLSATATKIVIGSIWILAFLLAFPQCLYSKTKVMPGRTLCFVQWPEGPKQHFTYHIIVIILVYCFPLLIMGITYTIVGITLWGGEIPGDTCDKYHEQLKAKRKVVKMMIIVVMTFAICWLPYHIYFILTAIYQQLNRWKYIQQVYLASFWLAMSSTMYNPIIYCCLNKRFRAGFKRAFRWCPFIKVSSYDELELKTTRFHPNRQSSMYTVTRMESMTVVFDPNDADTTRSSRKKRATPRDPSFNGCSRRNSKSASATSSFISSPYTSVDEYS
How it was run: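 Room-temperature, 90-min filtration binding assay using about 2.5 μg recombinant receptor membranes per well; separation on polyethyleneimine-treated glass-fibre (GF/C) filters and liquid scintillation read-out, with 10 μM SB222200 for nonspecific binding.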

| SMILES | pKi (human NK1 receptor) | pKi [1] | Ki (human NK1 receptor) | Ki [1] |
| --- | --- | --- | --- | --- |
| Cc1ccccc1-c1cc(N2CCOC(CO)C2)ncc1N(C)C(=O)C(C)(C)c1cc(C(F)(F)F)cc(C(F)(F)F)c1 (racemic) [Example 176, (RS)-2-(3,5-Bis-trifluoromethyl-phenyl)-N-[6-(2-hydroxymethyl-morpholin-4-yl)-4-o-tolyl-pyridin-3-yl]-N-methyl-isobutyramide] | 8.68 | 7.58 | – | – |
| Cc1ccc(F)cc1-c1cc(N2C[C@H](O)C[C@H]2CO)ncc1N(C)C(=O)C(C)(C)c1cc(C(F)(F)F)cc(C(F)(F)F)c1 [Example 227, (2S,4R)-2-(3,5-Bis-trifluoromethyl-phenyl)-N-[4-(5-fluoro-2-methyl-phenyl)-6-(4-hydroxy-2-hydroxymethyl-pyrrolidin-1-yl)-pyridin-3-yl]-N-methyl-isobutyramide] | – | – | 1.1 nM | 1.38 nM |
| Cc1noc(C)c1-c1cc(N2C[C@H](O)C[C@H]2CO)ncc1N(C)C(=O)C(C)(C)c1cc(C(F)(F)F)cc(C(F)(F)F)c1 [Example 230, (2S,4R)-2-(3,5-Bis-trifluoromethyl-phenyl)-N-[4-(3,5-dimethyl-isoxazol-4-yl)-6-(4-hydroxy-2-hydroxymethyl-pyrrolidin-1-yl)-pyridin-3-yl]-N-methyl-isobutyramide] | – | – | 0.741 nM | 2.69 nM |
| CC(=O)NC[C@@H]1CCCN1c1cc(-c2ccc(F)cc2C)c(N(C)C(=O)C(C)(C)c2cc(C(F)(F)F)cc(C(F)(F)F)c2)cn1 [Example 302, (S)-N-[6-[2-(Acetylamino-methyl)-pyrrolidin-1-yl]-4-(4-fluoro-2-methyl-phenyl)-pyridin-3-yl]-2-(3,5-bis-trifluoromethyl-phenyl)-N-methyl-isobutyramide] | – | – | 2.51 nM | 20.4 nM |
| Cc1ccccc1-c1cc(N2C[C@@H](F)C[C@H]2CO)ncc1N(C)C(=O)C(C)(C)c1cc(C(F)(F)F)cc(C(F)(F)F)c1 [Example 297, (2S,4S)-2-(3,5-Bis-trifluoromethyl-phenyl)-N-[6-(4-fluoro-2-hydroxymethyl-pyrrolidin-1-yl)-4-o-tolyl-pyridin-3-yl]-N-methyl-isobutyramide] | – | – | 2.88 nM | 1.32 nM |
| CN(C(=O)C(C)(C)c1cc(C(F)(F)F)cc(C(F)(F)F)c1)c1cnc(N2C[C@H](O)C[C@H]2CO)cc1-c1cc(Cl)ccc1Cl [Example 226, (2S,4R)-2-(3,5-Bis-trifluoromethyl-phenyl)-N-[4-(2,5-dichloro-phenyl)-6-(4-hydroxy-2-hydroxymethyl-pyrrolidin-1-yl)-pyridin-3-yl]-N-methyl-isobutyramide] | – | – | 7.76 nM | 16.6 nM |
| Cc1ncccc1-c1cc(N2CC[C@H](O)[C@H]2CO)ncc1N(C)C(=O)C(C)(C)c1cc(C(F)(F)F)cc(C(F)(F)F)c1 [Example 278, (2R,3S)-2-(3,5-Bis-trifluoromethyl-phenyl)-N-[6′-(3-hydroxy-2-hydroxymethyl-pyrrolidin-1-yl)-2-methyl-[3,4′]bipyridinyl-3′-yl]-N-methyl-isobutyramide] | – | – | 0.813 nM | 2.69 nM |
| CC(=O)N1CCN(c2cc(-c3ccccc3Cl)c(N(C)C(=O)C(C)(C)c3cc(C(F)(F)F)cc(C(F)(F)F)c3)cn2)CC1 [Example 61, N-[6-(4-Acetyl-piperazin-1-yl)-4-(2-chloro-phenyl)-pyridin-3-yl]-2-(3,5-bis-trifluoromethyl-phenyl)-N-methyl-isobutyramide] | 9.38 | 7.85 | – | – |
| CN(C(=O)C(C)(C)c1cc(C(F)(F)F)cc(C(F)(F)F)c1)c1cnc(N2CC[C@H](O)[C@H]2CO)cc1-c1ccc(Cl)c(Cl)c1 [Example 268, (2R,3S)-2-(3,5-Bis-trifluoromethyl-phenyl)-N-[4-(3,4-dichloro-phenyl)-6-(3-hydroxy-2-hydroxymethyl-pyrrolidin-1-yl)-pyridin-3-yl]-N-methyl-isobutyramide] | – | – | 2.29 nM | 2.4 nM |
| Cc1ccccc1-c1cc(N2CCC[C@H]2CO)ncc1N(C)C(=O)C(C)(C)c1cc(F)cc(F)c1 [Example 15, (S)-2-(3,5-Difluoro-phenyl)-N-[6-(2-hydroxymethyl-pyrrolidin-1-yl)-4-o-tolyl-pyridin-3-yl]-N-methyl-isobutyramide] | 8.20 | 8.35 | – | – |
| CN(C(=O)C(C)(C)c1cc(C(F)(F)F)cc(C(F)(F)F)c1)c1cnc(N2C[C@H](O)C[C@H]2CO)cc1-c1cccc(Cl)c1Cl [Example 229, (2S,4R)-2-(3,5-Bis-trifluoromethyl-phenyl)-N-[4-(2,3-dichloro-phenyl)-6-(4-hydroxy-2-hydroxymethyl-pyrrolidin-1-yl)-pyridin-3-yl]-N-methyl-isobutyramide] | – | – | 2.95 nM | 1.86 nM |
| Cc1ccccc1-c1cc(N(C)CCO)ncc1N(C)C(=O)C(C)(C)c1cc(C(F)(F)F)cc(C(F)(F)F)c1 [Example 117, 2-(3,5-Bis-trifluoromethyl-phenyl)-N-{6-[(2-hydroxy-ethyl)-methyl-amino]-4-o-tolyl-pyridin-3-yl}-N-methyl-isobutyramide] | 8.68 | 8.51 | – | – |
| COc1ccccc1-c1cc(N2CCC[C@H]2CO)ncc1N(C)C(=O)C(C)(C)c1cc(C(F)(F)F)cc(C(F)(F)F)c1 [Example 280, (S)-2-(3,5-Bis-trifluoromethyl-phenyl)-N-[6-(2-hydroxymethyl-pyrrolidin-1-yl)-4-(2-methoxy-phenyl)-pyridin-3-yl]-N-methyl-isobutyramide] | – | – | 1.82 nM | 1.86 nM |
| CC(=O)N[C@@H]1CCN(c2cc(-c3ccc(F)cc3C)c(N(C)C(=O)C(C)(C)c3cc(C(F)(F)F)cc(C(F)(F)F)c3)cn2)C1 [Example 100, (R)-N-[6-(3-Acetylamino-pyrrolidin-1-yl)-4-(4-fluoro-2-methyl-phenyl)-pyridin-3-yl]-2-(3,5-bis-trifluoromethyl-phenyl)-N-methyl-isobutyramide] | 8.74 | 7.70 | – | – |
| Cc1ccccc1-c1cc(NC[C@@H](O)CO)ncc1N(C)C(=O)C(C)(C)c1cc(C(F)(F)F)cc(C(F)(F)F)c1 [Example 123, (R)-2-(3,5-Bis-trifluoromethyl-phenyl)-N-[6-(2,3-dihydroxy-propylamino)-4-o-tolyl-pyridin-3-yl]-N-methyl-isobutyramide] | 8.60 | 7.90 | – | – |
| CN(C(=O)C(C)(C)c1cc(C(F)(F)F)cc(C(F)(F)F)c1)c1cnc(N2CCC[C@H]2CN2CCCC2)cc1-c1ccccc1Cl [Example 64, (S)-2-(3,5-Bis-trifluoromethyl-phenyl)-N-[4-(2-chloro-phenyl)-6-(−2-pyrrolidin-1-ylmethyl-pyrrolidin-1-yl)-pyridin-3-yl]-N-methyl-isobutyramide] | 9.00 | 8.54 | – | – |
| Cc1cc(F)ccc1-c1cc(N2C[C@@H](O)C[C@@H]2CO)ncc1N(C)C(=O)C(C)(C)c1cc(C(F)(F)F)cc(C(F)(F)F)c1 [Example 259, (2R,4S)-2-(3,5-Bis-trifluoromethyl-phenyl)-N-[4-(4-fluoro-2-methyl-phenyl)-6-(4-hydroxy-2-hydroxymethyl-pyrrolidin-1-yl)-pyridin-3-yl]-N-methyl-isobutyramide] | – | – | 1.66 nM | 15.1 nM |
| CN(C(=O)C(C)(C)c1cc(C(F)(F)F)cc(C(F)(F)F)c1)c1cnc(N2C[C@H](O)C[C@H]2CO)cc1-c1ccccc1O [Example 215, (2S,4R)-2-(3,5-Bis-trifluoromethyl-phenyl)-N-[6-(4-hydroxy-2-hydroxymethyl-pyrrolidin-1-yl)-4-(2-hydroxy-phenyl)-pyridin-3-yl]-N-methyl-isobutyramide] | – | – | 1.02 nM | 4.47 nM |
| Cc1cc(F)ccc1-c1cc(N2CCC[C@H]2CO)ncc1N(C)C(=O)C(C)(C)c1cc(F)cc(F)c1 [Example 28, (S)-2-(3,5-Difluoro-phenyl)-N-[4-(4-fluoro-2-methyl-phenyl)-6-(2-hydroxymethyl-pyrrolidin-1-yl)-pyridin-3-yl]-N-methyl-isobutyramide] | 8.55 | 8.40 | – | – |
| Cc1cc(F)ccc1-c1cc(N2[C@H](CO)CC[C@H]2CO)ncc1N(C)C(=O)C(C)(C)c1cc(C(F)(F)F)cc(C(F)(F)F)c1 [Example 198, (2S,5S)-N-[6-(2,5-Bis-hydroxymethyl-pyrrolidin-1-yl)-4-(4-fluoro-2-methyl-phenyl)-pyridin-3-yl]-2-(3,5-bis-trifluoromethyl-phenyl)-N-methyl-isobutyramide] | 8.75 | 8.96 | – | – |
| Cc1ccccc1-c1cc(N2CCC[C@H]2CO)ncc1N(C)C(=O)C(C)(C)c1cc(Cl)cc(OC(F)F)c1 [Example 36, (S)-2-(3-Chloro-5-difluoromethoxy-phenyl)-N-[6-(2-hydroxymethyl-pyrrolidin-1-yl)-4-o-tolyl-pyridin-3-yl]-N-methyl-isobutyramide] | 8.37 | 9.15 | – | – |
| CN(C(=O)C(C)(C)c1cc(C(F)(F)F)cc(C(F)(F)F)c1)c1cnc(NCC(O)CO)cc1-c1ccccc1Cl (racemic) [Example 78, (RS)-2-(3,5-Bis-trifluoromethyl-phenyl)-N-[4-(2-chloro-phenyl)-6-(2,3-dihydroxy-propylamino)-pyridin-3-yl]-N-methyl-isobutyramide] | 8.55 | 8.21 | – | – |
